{
  "source": "patent US8044103B2",
  "about": "“Cyclic dipeptides and azetidinone compounds and their use in treating CNS injury and neurodegenerative disorders” (Georgetown University, priority 1998, dated 2011)",
  "key": {"[1]": {"test_system": "lightly anesthetized rats", "test": "Core body temperature in lightly anesthetized uninjured rats (analeptic study)", "format": "in vivo", "conditions": "1 mg/kg i.v.; over 60 min following anesthesia; p<0.001 vs all other groups at 20-60 min", "protocol": "(§1) Additional groups of uninjured rats were tested for autonomic and analeptic responses immediately prior to and up to 60 min. following drug administration. For the analeptic study, rats were first anesthetized with 40 mg/kg i.p. sodium pentabarbitone and placed onto an unheated pad on the laboratory bechtop at room temperature (22±2° C.). A thermister probe was placed in the rectum to measure core body temperature. After a 10 min. period, rats were administered vehicle or drug as described below via the tail vein. Time to recovery of the righting-reflex was subsequently determined while temperature was recorded at 5 min. intervals for all animals. […]\n(§2) Continuous variables compared across groups were examined using an analysis of variance (ANOVA) followed by Bonferroni correction (rightin reflex). Continuous variables subjected to repeated measurements over a period of time (cardiovascular and core temperature measurements) were analyzed using a repeated measurements ANOVA followed by Tukey's pairwise comparison at each time point. Ordinal measurements (composite neurological scores) were evaluated using the non-parametric Kruskal-Wallis ANOVA with individual, non-parametric Mann-Whitney U-tests. […]"}, "[2]": {"test_system": "lightly anesthetized rats", "test": "Latency to recover righting reflex after light anesthesia (analeptic study)", "format": "in vivo", "conditions": "i.v., doses of 1 mg/kg and 10 mg/kg (FIG. 11); after 40 mg/kg i.p. sodium pentobarbitone", "protocol": "as §1, §2"}, "[3]": {"test_system": "fully conscious and unrestrained rats", "test": "Mean arterial blood pressure in conscious unrestrained rats (autonomic study)", "format": "in vivo", "conditions": "1 mg/kg i.v., over the duration of testing", "text": "To assess autonomic responses to the novel TRH analogues, a separate group of rats were anesthetized with 4% isoflurane (1.5 L/min). Catheters were then placed into the right artoid artery and right jugular vein and exteriorized at the back of the neck. Rats were separated one per cage and allowed to recover from anesthesia. The exteriorized catheters were suspended above the rat to prevent biting. Mean […] blood pressure (MAP) was continuously recorded via a transducer connected directly to the arterial catheter for the duration of the study. At 1 h following catheter placement, rats were administered vehicle or drug via the catheter in the jugular vein as described below. […]\nas §2"}, "[4]": {"test_system": "central facilitating activity", "conditions": "cited from earlier work"}, "rats following trauma": {"test_system": "rats following trauma", "conditions": "cited from earlier work"}, "[5]": {"test_system": "mice following controlled cortical impact injury (CCI)", "test": "Beam walking task after controlled cortical impact injury (chronic neurological recovery)", "format": "in vivo, Male C57Bl/6 mice", "conditions": "1 mg/kg following CCI injury; small group size (n=6)", "protocol": "Male C57Bl/6 mice (20-25 g) were obtained from Taconic Farms (Germantown, N.Y.) and housed in an area directly adjoining surgical and behavioral rooms for at least 1 week prior to any procedures. All mice were maintained at a constant temperature (22±2° C.) and a 12 hr light/dark cycle, with lights on at 6 am and all behavioral testing performed during the light cycle. Food and water were available ad libitumn.\nThe injury device consisted of a microprocessor-controlled pneumatic impactor with a 3.5 mm diameter tip. The impactor is vertically mounted on a mill table (Sherline, USA) which allows for precise adjustment in the vertical plane above the mouse head, which itself is secured to a stereotaxic apparatus (David Kopf Instruments, CA) attached to the instrument. The core rod of a linear voltage differential transducer (LVDT, Serotec, USA) is attached to the lower end of the impactor to allow measurement of velocities between 3.0 and 9.0 m/s. Velocity of the impactor is controlled by fine tuning both positive and negative (back) air pressures. An oscilloscope (Tektronix, USA) records the time/displacement curve produced by the downward force on the LVDT, allowing precise measurement of the impactor velocity.\nSurgical anesthesia was induced and maintained with 4% and 2% isoflurane respectively, using a flow rate of 1.0-1.5 l oxygen per minute. Depth of anesthesia was assessed by monitoring respiration rate and palpebral and pedal-withdrawal reflexes. The animal was then placed onto a heated pad and core body temperature was monitored and maintained at 38+/−0.2° C. The head was mounted in a stereotaxic frame and the surgical site clipped and prepared with a series of three Nolvasan scrubs followed by sterile saline rinses. A 10 mm mid-line incision was made over the skull, the skin and fascia reflected, and a 4 mm craniotomy made on the central aspect of the left parietal bone with a tissue punch (Roboz, USA). Great care was taken with the removal of the parietal bone to avoid injury to the underlying dura mater which was continuously bathed in sterile normal saline warmed to 37.5° C. The impounder tip of the pneumatic injury device was cleaned with a pad, soaked in absolute alcohol, positioned to the surface of the exposed dura and automatically withdrawn the 44 mm stroke distance. Following injury at a moderate (6.0 m/s velocity, 1 mm tissue deformation depth) level, the incision was closed with interrupted 6-0 silk sutures, anaesthesia was discontinued and the mouse was placed into a heated cage to maintain normothermia for 45 minutes post-injury. All animals were monitored carefully for at least 4 hours post-surgery and then daily. To minimize variation between animals due to anaesthesia during acute neurological testing, 20 minutes was allowed for surgery and 5 minutes for suturing for each animal.\nConscious mice were placed in a mouse restrainer and injected via the lateral tail vein with either normal saline (injured controls; n=6), 1 mg/kg Compound 2a (n=8), Compound 10b (n=6), Compound 11b (n=6) or Compound 14c (n=6) at 30 minutes following controlled cortical impact injury (CCI). The values for n represents the number of mice in the particular treatment group. The investigator was blinded to drug treatment both at the time of surgery and for neurological and behavioral scoring.\nChronic neurological recovery was evaluated for all animals using a beam walking task, a method which is particularly good at discriminating fine motor coordination differences between injured and sham-operated animals. The device consisted of a narrow wooden beam 6 mm wide and 120 mm in length which was suspended 300 mm above a 60 mm-thick foam rubber pad. The mouse was placed on one end of the beam and the number of footfaults for the right hindlimb recorded over 50 steps counted in either direction on the beam. A basal level of competence at this task was established before surgery with an acceptance level of <10 faults per 50 steps. […]"}, "[6]": {"test_system": "traumatic spinal cord injury", "conditions": "in vivo; cited from earlier work"}, "[7]": {"conditions": "in vivo; cited from earlier work"}, "[8]": {"test_system": "traumatic spinal cord injury in cats", "conditions": "cited from earlier work"}, "[9]": {"test_system": "cats subjected to brainstem compression", "conditions": "cited from earlier work"}, "[10]": {"test_system": "head impact trauma in mice", "conditions": "cited from earlier work"}, "[11]": {"test_system": "rats following moderate fluid percussion injury", "test": "Mortality after moderate fluid percussion injury", "format": "in vivo, Male Sprague-Dawley rats", "conditions": "1 mg/kg i.v. 30 min following moderate fluid percussion injury; died before the end of the study; saline 21.4% and 37.5%", "protocol": "Rats were anesthetized with sodium pentobarbital (70 mg/kg i.p.), intubated, and implanted with femoral venous and arterial catheters. Brain temperature was assessed indirectly through a thermister in the temporalis muscle. Body temperature was maintained through a feedback-controlled heating blanket. Blood pressure was continuously monitored, and arterial blood gases analyzed periodically. After the animal was placed in a stereotaxic frame, the scalp and temporal muscle were reflected, and a small craniotomy (5 mm) located midway between the lambda and bregma sutures over the left parietal cortex allowed insertion of a Leur-Loc that is cemented in place. The fluid-percussion head injury device, manufactured by the Medical College of Virginia, consists of a plexiglass cylindrical reservoir filled with isotonic saline; one end includes a transducer that is mounted and connected to a 5 mm tube that attaches through a male Leur-Loc fitting to the female Leur-Loc cemented at the time of surgery. A pendulum strikes a piston at the opposite end of the device, producing a pressure pulse of approximately 22 msec duration, leading to deformation of underlying brain. The degree of injury is related to the pressure pulse, expressed in atmospheres (atm): 2.6 atm in our laboratory produces a moderate injury with regard to neurological and histological deficit. Sham (control) animals undergo anesthesia and surgery without fluid percussion brain injury. […]\nas §2"}},
  "data": [
    {"smiles": "NC(=O)[C@@H]1CCCN1C(=O)[C@H](Cc1cnc[nH]1)NC(=O)[C@@H]1CC(=O)N1", "note": "[YM-14673, N^α-[(S)-4-Oxo-Azetidine-2-Carbonyl]-L-Histidyl-L-Prolinamide]", "values": [
      {"measurement": "core temperature maintained", "setting": "[1]", "value": "37-38 °C"},
      {"measurement": "latency to recovery of righting reflex compared with saline", "setting": "[2]", "value": "significantly attenuated"},
      {"measurement": "mean arterial blood pressure (MAP) compared with vehicle / other groups", "setting": "[3]", "value": "significantly higher MAP"},
      {"measurement": "duration of action relative to TRH (longer acting)", "setting": "[4]", "value": "8-36 times"},
      {"measurement": "potency relative to TRH", "setting": "[4]", "value": "10-100 times"},
      {"measurement": "chronic neurological recovery following trauma", "setting": "rats following trauma", "value": "improved chronic neurological recovery"}
    ]},
    {"smiles": "NC(=O)[C@@H]1CCCN1C(=O)C1(NC(=O)[C@@H]2CC(=O)N2)CC1", "note": "[Compound 10b, N^1-[1-[N—[(S)-4-Oxo-Azetidine-2-Carbonyl]Amino]Cyclopropane-Carbonyl]Prolinamide]", "values": [
      {"measurement": "performance deficits in the beamwalking task compared with saline vehicle", "setting": "[5]", "value": "attenuated"}
    ]},
    {"smiles": "C[C@H]1SC[C@@H](C(=O)N[C@H](Cc2c[nH]cn2)C(=O)N2CCC[C@H]2C(N)=O)NC1=O", "note": "[CG3703]", "values": [
      {"measurement": "outcome following traumatic spinal cord injury", "setting": "[6]", "value": "improve outcome"}
    ]},
    {"smiles": "NC(=O)[C@@H]1CCCN1C(=O)[C@H](Cc1cnc[nH]1)NC(=O)[C@@H]1CCC(=O)N1", "note": "[TRH, L-pyroglutamyl-L-histidyl-L-prolinamide]", "values": [
      {"measurement": "plasma half-life", "setting": "[7]", "value": "4 to 5", "unit": "min"},
      {"measurement": "neurological deficits after traumatic spinal cord injury", "setting": "[8]", "value": "reduces neurological deficits"},
      {"measurement": "electrical activity and neurological recovery after brainstem compression", "setting": "[9]", "value": "improve electrical activity and neurological recovery"},
      {"measurement": "postconcussional behavioral suppression following head impact trauma", "setting": "[10]", "value": "shorten postconcussional behavioral suppression"}
    ]},
    {"smiles": "NC(=O)[C@@H]1CCCN1C(=O)C1(NC(=O)[C@@H]2CC(=O)N2)CCCCC1", "note": "[Compound 11b]", "values": [
      {"measurement": "performance deficits in the beamwalking task compared with saline vehicle", "setting": "[5]", "value": "attenuated"}
    ]},
    {"smiles": "NC(=O)[C@H]1CSCN1C(=O)[C@H](Cc1cnc[nH]1)NC(=O)[C@@H]1CCCC(=O)N1", "note": "[MK-771]", "values": [
      {"measurement": "outcome following traumatic spinal cord injury", "setting": "[6]", "value": "ineffective"}
    ]},
    {"smiles": "O=C1NC2(CC2)C(=O)N2CCC[C@@H]12", "note": "[Compound 1a, Cyclo [(1-Amino-1-Cyclopropane-Carboxylic Acid)-Pro]]", "values": [
      {"measurement": "mortality rate", "setting": "[11]", "value": 28.6, "unit": "%"}
    ]},
    {"smiles": "CC1(C)CCN(C(=O)[C@H](Cc2cnc[nH]2)NC(=O)[C@@H]2CCC(=O)N2)[C@@H]1C(N)=O", "note": "[RX-77368]", "values": [
      {"measurement": "outcome following traumatic spinal cord injury", "setting": "[6]", "value": "ineffective"}
    ]},
    {"smiles": "NC(=O)[C@@H]1CCCN1C(=O)[C@H](Cc1cnc[nH]1)NC(=O)c1cc(=O)[nH]c(=O)[nH]1", "note": "[CG3509]", "values": [
      {"measurement": "outcome following traumatic spinal cord injury", "setting": "[6]", "value": "improve outcome"}
    ]},
    {"smiles": "CC(C)(C)SC[C@@H]1NC(=O)[C@@H]2CCCN2C1=O", "note": "[Compound 4a, Cyclo(t-Butyl-Cys-Pro)]", "values": [
      {"measurement": "mortality rate", "setting": "[11]", "value": 0, "unit": "%"}
    ]}
  ]
}
